{
  "source": "patent US20200222372A1",
  "about": "(Ovid Therapeutics Inc., priority 2017, published 2020)",
  "key": {"onset of REM sleep": {"test_system": "onset of REM sleep", "assay": "Delay of onset of REM sleep after falling asleep in narcoleptic patient", "format": "in vivo, human (narcoleptic patient)", "conditions": "0.5 mg to 25 mg gaboxadol or salt", "protocol": "As mentioned above, people with narcolepsy frequently abnormally enter REM sleep within 15 minutes of falling asleep. […] Without wishing to be bound by any theory, symptoms associated with narcolepsy such as cataplexy, sleep paralysis, hallucinations, and automatic behaviors closely mimic the natural physiologic response that occurs during REM sleep. By inducing a more normal REM sleep architecture in narcoleptic patients, symptoms associated with narcolepsy are reduced or alleviated. […] In embodiments, the delay of onset of REM sleep is about 30 minutes or longer. In embodiments, the delay of onset of REM sleep is about 45 minutes or longer. In embodiments, the delay of onset of REM sleep is about 60 minutes or longer. In embodiments, the delay of onset of REM sleep is about 75 minutes or longer."}, "[1]": {"conditions": "human, in vivo"}},
  "data": [
    {"smiles": "Oc1noc2c1CCNC2", "note": "[gaboxadol, 4,5,6,7-tetrahydroisoxazolo [5,4-c] pyridine-3-ol]", "values": [
      {"measurement": "onset of REM sleep after falling asleep", "setting": "onset of REM sleep", "result": "≥ 30", "unit": "min"},
      {"measurement": "CL for 10 mg IV (in CL/F row)", "setting": "[1]", "result": 438, "unit": "mL/min"}
    ]}
  ]
}
